The target in assay [1] is histone deacetylase activity (HeLa nuclear extract). The experiment in a line: HDAC fluorescent activity assay (Biomol Fluor de Lys), HeLa nuclear extract. The assay is classed as biochemical. Conditions: Fluor de Lys substrate. How it is done: The ability of compounds to inhibit histone deacetylase activities was measured using the commercially available HDAC fluorescent activity assay from Biomol. In brief, the Fluor de Lys™ substrate, a lysine with an epsilon-amino acetylation, is incubated with the source of histone deacetylase activity (HeLa nuclear extract) in the presence or absence of inhibitor.
Deacetylation of the substrate sensitises the substrate to Fluor de Lys™ developer, which generates a fluorophore. Thus, incubation of the substrate with a source of HDAC activity results in an increase in signal that is diminished in the presence of an HDAC inhibitor.
Data are expressed as a percentage of the control, measured in the absence of inhibitor, with background signal being subtracted from all samples, as follows: — % activity=((S^i−B)/(S^o−B))×100 where S^i is the signal in the presence of substrate, enzyme and inhibitor, S^o is the signal in the presence of substrate, enzyme and the vehicle in which the inhibitor is dissolved, and B is the background signal measured in the absence of enzyme.
(§1) IC50 values were determined by non-linear regression analysis, after fitting the results of eight data points to the equation for sigmoidal dose response with variable slope (% activity against log concentration of compound), using Graphpad Prism software.
Histone deacetylase activity from crude nuclear extract derived from HeLa cells was used for screening. The preparation, purchased from 4C (Seneffe, Belgium), was prepared from HeLa cells harvested whilst in exponential growth phase. The nuclear extract is prepared according to Dignam JD1983 Nucl. Acid. Res. 11, 1475-1489, snap frozen in liquid nitrogen and stored at −80° C. The final buffer composition was 20 mM Hepes, 100 mM KCl, 0.2 mM EDTA, 0.5 mM DTT, 0.2 mM PMSF and 20% (v/v) glycerol.
Results of testing the compounds of the examples in this assay are given in the second column of Table 1 below.

In assay [2] the test system is Hela. Nature of the assay: Cell inhibition assay (SRB cell viability), Hela. In kind it is cell-based. The note with it: Homo sapiens, HeLa, 72 h, Hela cells. How it is done: (§2) The corresponding cancer cell lines (Hela, U937 and HUT) growing in log phase were harvested and seeded at 1000 cells/well (200 ul final volume) into 96-well tissue culture plates. Following 24 h of cell growth cells were treated with compounds (final concentration of 20 uM). Plates were then re-incubated for a further 72 h before a sulphorhodamine B (SRB) cell viability assay was conducted according to Skehan 1990 J Natl Canc Inst 82, 1107-1112.
(§3) Data were expressed as a percentage inhibition of the control, measured in the absence of inhibitor, as follows: — % inhibition=100−((S^i/S^o)×100) where S^i is the signal in the presence of inhibitor and S^o is the signal in the presence of DMSO.
as §1
(§4) Results of testing the compounds of the examples in this assay are given in the third- fifth columns of Table 1.

For assay [3], the system named is HUT. Nature of the assay: Cell inhibition assay (SRB cell viability), HUT. In kind it is cell-based. The note with it: 72 h, HUT cells. How it is done:
as §2, §3, §1, §4

In assay [4] the test system is U937. The experiment in a line: Cell inhibition assay (SRB cell viability), U937. The assay is classed as cell-based. The note with it: Homo sapiens, U-937, 72 h, U937 cells. How it is done:
as §2, §3, §1, §4

Each structure is given as a SMILES string. pIC50: −log10 of the molar value. A value given as a limit tells only on which side of the number the result lay.

For the compound `N[C@@H](CCCOc1ccc(CNCc2ccc3cc(C(=O)NO)sc3c2)cc1)C(=O)O` [Example 12, (S)-2-Amino-5-(4-{[(2-hydroxycarbamoyl-benzo[b]thiophen-6-ylmethyl)-amino]-methyl}-phenoxy)-pentanoic acid], in assay [1], the pIC50 is above 7.00.

Regarding `O=C(NO)c1cc2ccc(CNCc3ccc(OCCC[C@H](NC4CCCCC4)C(=O)O)cc3)cc2s1` [Example 23, (S)-2-Cyclohexylamino-5-(4-{[(2-hydroxycarbamoyl-benzo[b]thiophen-6-ylmethyl)-amino]-methyl}-phenoxy)-pentanoic acid], in assay [1], the negative-log IC50 (pIC50) is above 7.00.

In turn, `NC(C(=O)O)C1CCC(Oc2ccc(CNCc3ccc4cc(C(=O)NO)sc4c3)cc2)CC1` (centres unmarked) [Example 31, Amino-[4(4-{[(2-hydroxycarbamoyl-benzo[b]thiophen-6-ylmethyl)-amino]-methyl}-phenoxy)-cyclohexyl]-acetic acid] had a pIC50 in assay [1] above 7.00.

Take `N[C@@H](CCOc1ccc(NC(=O)CCCCCCC(=O)NO)cc1)C(=O)O` [Example 8, (S)-2-Amino-4-[4-(7-hydroxycarbamoyl-heptanoylamino)-phenoxy]-butyric Acid]: the pIC50 in assay [1] is 6.00 to 7.00.

Consider `N[C@@H](CCCOc1ccc(CNCc2ccc3cc(C(=O)NO)sc3c2)cc1)C(=O)OC1CCCC1` [Example 11, (S)-2-Amino-5-(4-{[(2-hydroxycarbamoyl-benzo[b]thiophen-6-ylmethyl)-amino]-methyl}-phenoxy)-pentanoic acid cyclopentyl ester], for which the pIC50 was above 7.00 in assay [1], above 6.48 in assay [2], above 6.48 in assay [3] and above 6.48 in assay [4].

As for `CC(=O)N[C@H](Cc1ccc(NC(=O)CCCCCCC(=O)NO)cc1)C(=O)O` [Example 4, (R)-2-Acetylamino-3-[4(7-hydroxycarbamoyl-heptanoylamino)-phenyl]-propionic acid], the pIC50 in assay [1] is below 6.00; in assay [2] it was below 5.48; in assay [3] it was below 5.48; in assay [4], below 5.48.

Regarding `CC(=O)N[C@@H](CCCOc1ccc(CNCc2ccc3cc(C(=O)NO)sc3c2)cc1)C(=O)OC1CCCC1` [Example 21, (S)-2-Acetylamino-5-(4-{[(2-hydroxycarbamoyl-benzo[b]thiophen-6-ylmethyl)-amino]-methyl}-phenoxy)-pentanoic acid cyclopentyl ester], the negative logarithm of the IC50 (pIC50) in assay [1] was above 7.00; in assay [2], 5.48 to 6.48; in assay [3] it was above 6.48; in assay [4] it was 5.48 to 6.48.

For the compound `N[C@@H](CC1CCC(Oc2ccc(CNCc3ccc4cc(C(=O)NO)sc4c3)cc2)CC1)C(=O)OC1CCCC1` (stereo partly drawn) [Example 28, 2-(S)-Amino-3-[4-(4-{[(2-hydroxycarbamoyl-benzo[b]thiophen-6-ylmethyl)-amino]-methyl}-phenoxy)-cyclohexyl]-propionic acid cyclopentyl ester], the pIC50 in assay [1] is above 7.00; in assay [2] it was 5.48 to 6.48; in assay [3], above 6.48; in assay [4], above 6.48.

As to `N[C@H](CCCOc1ccc(CNCc2ccc3cc(C(=O)NO)sc3c2)cc1)C(=O)O` [Example 16, (R)-2-Amino-5-(4-{[(2-hydroxycarbamoyl-benzo[b]thiophen-6-ylmethyl)-amino]-methyl}-phenoxy)-pentanoic acid], the pIC50 in assay [1] was above 7.00.

In assay [1], `N[C@@H](CCOc1ccc(CNCc2ccc3cc(C(=O)NO)sc3c2)cc1)C(=O)O` [Example 10, (S)-2-Amino-4-(4-{[(2-hydroxycarbamoyl-benzo[b]thiophen-6-ylmethyl)-amino]-methyl}-phenoxy)-butyric acid] gave a negative-log IC50 (pIC50) above 7.00.

Compound `COc1cc(CNCc2ccc3cc(C(=O)NO)sc3c2)ccc1OCCC[C@H](N)C(=O)O` [Example 20, (S)-2-Amino-5-(4-{[(2-hydroxycarbamoyl-benzo[b]thiophen-6-ylmethyl)-amino]-methyl}-2-methoxyphenoxy)-pentanoic acid] gave a negative-log IC50 (pIC50) in assay [1] above 7.00.

The compound `N[C@@H](CCCOc1ccc(CNCc2ccc3cc(C(=O)NO)sc3c2)cc1)C(=O)O` [Example 18, (S)-2-Amino-5-(4-{[(2-hydroxycarbamoyl-benzo[b]thiophen-6-ylmethyl)-amino]-methyl}-phenoxy)-pentanoic acid] gave a negative logarithm of the IC50 (pIC50) in assay [1] of 6.00 to 7.00.

With `N[C@@H](CCOc1ccc(CNCc2ccc3cc(C(=O)NO)sc3c2)cc1)C(=O)OC1CCCC1` [Example 9, (S)-2-Amino-4-(4-{[(2-hydroxycarbamoyl-benzo[b]thiophen-6-ylmethyl)-amino]-methyl}-phenoxy)-butyric acid cyclopentyl ester], the negative logarithm of the IC50 (pIC50) in assay [1] is above 7.00; in assay [2] it was above 6.48; in assay [3] it was above 6.48; in assay [4], above 6.48.

On to `N[C@H](C(=O)O)c1ccc(Oc2ccc(CNCc3ccc4cc(C(=O)NO)sc4c3)cc2)cc1` [Example 25, (S)-Amino-[4-(4-{[(2-hydroxycarbamoyl-benzo[b]thiophen-6-ylmethyl)-amino]-methyl}-phenoxy)-phenyl]-acetic acid], for which the pIC50 in assay [1] is above 7.00.

Consider `CC(=O)N[C@H](Cc1ccc(NC(=O)CCCCCCC(=O)NO)cc1)C(=O)OC1CCCC1` [Example 3, (R)-2-Acetylamino-3-[4-(7-hydroxycarbamoyl-heptanoylamino)-phenyl]-propionic acid cyclopentyl ester], for which the pIC50 in assay [1] is 6.00 to 7.00; in assay [2] it was below 5.48; in assay [3] it was 5.48 to 6.48; in assay [4], below 5.48.

For the compound `N[C@@H](CCOc1cccc(NC(=O)CCCCCCC(=O)NO)c1)C(=O)O` [Example 6, (S)-2-Amino-4-[3-(7-hydroxycarbamoyl-heptanoylamino)-phenoxy]-butyric acid], the pIC50 in assay [1] was 6.00 to 7.00; in assay [2], below 5.48; in assay [3], 5.48 to 6.48; in assay [4] it was 5.48 to 6.48.

In the case of `N[C@H](CCCOc1ccc(CNCc2ccc3cc(C(=O)NO)sc3c2)cc1)C(=O)OC1CCCC1` [Example 15, (R)-2-Amino-5-(4-{[(2-hydroxycarbamoyl-benzo[b]thiophen-6-ylmethyl)-amino]-methyl}-phenoxy)-pentanoic acid cyclopentyl ester], the pIC50 was above 7.00 in assay [1], 5.48 to 6.48 in assay [2], above 6.48 in assay [3] and above 6.48 in assay [4].

In assay [1], `N[C@@H](Cc1ccc(Oc2ccc(CNCc3ccc4cc(C(=O)NO)sc4c3)cc2)cc1)C(=O)O` [Example 27, (S)-2-Amino-3-[4-(4-{[(2-hydroxycarbamoyl-benzo[b]thiophen-6-ylmethyl)-amino]-methyl}-phenoxy)-phenyl]-propionic acid] had a negative-log IC50 (pIC50) above 7.00.

As to `N[C@H](C(=O)OC1CCCC1)c1ccc(Oc2ccc(CNCc3ccc4cc(C(=O)NO)sc4c3)cc2)cc1` [Example 24, (S)-Amino-[4-(4-{[(2-hydroxycarbamoyl-benzo[b]thiophen-6-ylmethyl)-amino]-methyl}-phenoxy)-phenyl]-acetic acid cyclopentyl ester], the negative-log IC50 (pIC50) in assay [1] was above 7.00; in assay [2] it was 5.48 to 6.48; in assay [3], above 6.48; in assay [4], above 6.48.

In assay [1], `N[C@@H](CC1CCC(Oc2ccc(CNCc3ccc4cc(C(=O)NO)sc4c3)cc2)CC1)C(=O)O` (stereo partly drawn) [Example 29, 2-(S)-Amino-3-[4-(4-{[(2-hydroxycarbamoyl-benzo[b]thiophen-6-ylmethyl)-amino]-methyl}-phenoxy)-cyclohexyl]-propionic acid] showed a negative-log IC50 (pIC50) above 7.00.

The record behind these values is patent publication US7973181B2, “Hydroxamic acid derivatives as inhibitors of HDAC enzymatic activity” (Chroma Therapeutics Ltd., priority 2005, dated 2011).
